Data from patent publication US20240099214A1, “PLANT DEFENCE GENE EXPRESSION” (UPL Corporation Limited, priority 2021, published 2024).

Tests used:
[1] = system: E3 Ubiquitin-protein ligase march3 (gene 2, Solyc01g079530.2); assay: qRT-PCR expression of gene 2 in tomato leaves; format: in vivo, Tomato ecotype corbarino; parameters: key: relative expression normalized to a-tubulin housekeeping gene
Experimental: (§1) Tomato ecotype “corbarino” reported to be susceptible to TSWV infection was used in the experiment. Plants were grown in pots in a climatic chamber with a photoperiod of 16/8 hour at 25° C.
(§2) The viral strain (TSWV PV PV-0393) was utilized in the experiment. The virus was mechanically inoculated and propagated on tomato “corbarino”. The inoculum was prepared in an ice-cooled mortar grounding 1 gr of infected tomato tissue in 10 ml of Na-phosphate buffer 0.01M. The fresh prepared inoculum was stored in ice before use. Tomato plants at BBCH16 were dusted with Carborundum 600 mesh and selected leaves were rubbed with some droplets of inoculum. After 5 min. plants were sprayed with sterile water to remove the excess of inoculum and preserve the cell turgor.
(§3) Four treatments were compared: i) Mock inoculated; ii) TSWV; iii) 0.25% Laminarin; iv) 0.25% Laminarin+TSWV. In the last treatment the virus was inoculated 24 hrs after the laminarin application.
(§4) Total RNA was extracted from systemic infected tomato leaves by using the Quick-RNA Plant Kit (Zymo Research) following the manufacturer instructions. The extractions were carried out using three plants after 12 h, 24 h, 48 h, 72 h, 7 days after inoculation. Leaves were instantly frozen in liquid nitrogen after cutting to avoid any deterioration of the sample as well as any defense reaction. The RNA concentration was quantified by measuring the absorbance at 260 nm using a Nanodrop 2000 (Thermofisher). The purity of all of the RNA samples was assessed at an absorbance ratio of OD260/280 and OD260/230, while its structural integrity was checked by agarose gel electrophoresis. Only high-quality RNA with OD 260/280 and OD 260/230>2 was used for subsequent steps. Single-stranded cDNA was synthesized from 1 μg of total RNA using an iScript™ Select cDNA Synthesis Kit and random hexamers as primers (Bio-Rad, Milan, Italy), according to the manufacturer's instructions. Three biological replicates were created from the 3 leaves collected to test 15 genes. Alpha tubulin was used as reference gene.
(§5) qPCR reactions were performed with BioRad (Applied Biosystems, Foster City, CA, USA) using SYBR R Green. Each reaction was performed in 20 μl containing 10 μl of 2× Power SYBR Green PCR Master Mix (Life Technologies), 0.2-0.3 μM primers and cDNA samples diluted 1:20. Each qPCR reaction was performed in triplicate. Reactions were run using the cycling parameter described previously (Reid et al., 2006) and the qPCR data were analyzed by the Ct method (Pfaffl, 2001). In order to analyze the qPCR data, a-tubulin gene was used as housekeeping to determine the relative expression level of the other genes analyzed in this work. For the determination of qPCR efficiency of each primer pairs, a standard curve was performed using the following cDNA dilutions: 1:4, 1:16, 1:64; 1:256 and 1:1024. Every measurement was made in triplicate. The corresponding qPCR efficiencies (E) were calculated for every primer pair with the software 7300 System SDS software (Applied Biosystems, Foster City, CA, USA) according to the equation E=(10−1/slope−1)×100 (Rutledge and Stewart, 2008).
(§6) The significance of the differences between the gene expressions levels were compared by one-way ANOVA (p=0.01) and the means were separated by Tukey post-hoc test using SPSS ver.26 ([…]).

[2] = system: Nbs-Irr resistance protein (gene 3, Solyc05g009760.1); assay: qRT-PCR expression of gene 3 in tomato leaves; format: in vivo, Tomato ecotype corbarino; parameters: key: relative expression normalized to a-tubulin housekeeping gene
Experimental: as §1, §2, §3, §4, §5, §6

Substance: laminarin
- RQ1 ([1]; 12 hr, Laminarin + virus): 13.056
- RQ2 ([1]; 12 hr, Laminarin + virus): 23.403
- RQ3 ([1]; 12 hr, Laminarin + virus): 12.079
- RQ mean ([1]; 12 hr, Laminarin + virus): 16.179
- RQ1 ([1]; 12 hr, Laminarin alone): 13.140
- RQ2 ([1]; 12 hr, Laminarin alone): 19.586
- RQ3 ([1]; 12 hr, Laminarin alone): 10.706
- RQ mean ([1]; 12 hr, Laminarin alone): 14.477
- RQ1 ([1]; 24 hr, Laminarin + virus): 11.700
- RQ2 ([1]; 24 hr, Laminarin + virus): 13.596
- RQ3 ([1]; 24 hr, Laminarin + virus): 12.341
- RQ mean ([1]; 24 hr, Laminarin + virus): 12.546
- RQ1 ([1]; 24 hr, Laminarin alone): 13.152
- RQ2 ([1]; 24 hr, Laminarin alone): 13.329
- RQ3 ([1]; 24 hr, Laminarin alone): 14.033
- RQ mean ([1]; 24 hr, Laminarin alone): 13.505
- RQ1 ([1]; 48 hr, Laminarin + virus): 24.083
- RQ2 ([1]; 48 hr, Laminarin + virus): 18.519
- RQ3 ([1]; 48 hr, Laminarin + virus): 21.352
- RQ mean ([1]; 48 hr, Laminarin + virus): 21.318
- RQ1 ([1]; 48 hr, Laminarin alone): 27.467
- RQ2 ([1]; 48 hr, Laminarin alone): 17.321
- RQ3 ([1]; 48 hr, Laminarin alone): 23.298
- RQ mean ([1]; 48 hr, Laminarin alone): 22.695
- RQ1 ([1]; 72 hr, Laminarin + virus): 28.726
- RQ2 ([1]; 72 hr, Laminarin + virus): 29.558
- RQ3 ([1]; 72 hr, Laminarin + virus): 37.336
- RQ mean ([1]; 72 hr, Laminarin + virus): 31.873
- RQ1 ([1]; 72 hr, Laminarin alone): 29.447
- RQ2 ([1]; 72 hr, Laminarin alone): 23.000
- RQ3 ([1]; 72 hr, Laminarin alone): 53.007
- RQ mean ([1]; 72 hr, Laminarin alone): 35.151
- RQ1 ([2]; 12 hr, Laminarin + virus): 11.935
- RQ2 ([2]; 12 hr, Laminarin + virus): 12.286
- RQ3 ([2]; 12 hr, Laminarin + virus): 0.9487
- RQ mean ([2]; 12 hr, Laminarin + virus): 11.236
- RQ1 ([2]; 12 hr, Laminarin alone): 10.545
- RQ2 ([2]; 12 hr, Laminarin alone): 10.498
- RQ3 ([2]; 12 hr, Laminarin alone): 0.8329
- RQ mean ([2]; 12 hr, Laminarin alone): 0.9791
- RQ1 ([2]; 24 hr, Laminarin + virus): 11.167
- RQ2 ([2]; 24 hr, Laminarin + virus): 10.509
- RQ3 ([2]; 24 hr, Laminarin + virus): 13.936
- RQ mean ([2]; 24 hr, Laminarin + virus): 11.871
- RQ1 ([2]; 24 hr, Laminarin alone): 12.229
- RQ2 ([2]; 24 hr, Laminarin alone): 13.976
- RQ3 ([2]; 24 hr, Laminarin alone): 11.514
- RQ mean ([2]; 24 hr, Laminarin alone): 12.573
- RQ1 ([2]; 48 hr, Laminarin + virus): 12.976
- RQ2 ([2]; 48 hr, Laminarin + virus): 26.960
- RQ3 ([2]; 48 hr, Laminarin + virus): 15.208
- RQ mean ([2]; 48 hr, Laminarin + virus): 18.381
- RQ1 ([2]; 48 hr, Laminarin alone): 27.419
- RQ2 ([2]; 48 hr, Laminarin alone): 26.255
- RQ3 ([2]; 48 hr, Laminarin alone): 14.098
- RQ mean ([2]; 48 hr, Laminarin alone): 22.591
- RQ1 ([2]; 72 hr, Laminarin + virus): 47.747
- RQ2 ([2]; 72 hr, Laminarin + virus): 48.776
- RQ3 ([2]; 72 hr, Laminarin + virus): 16.860
- RQ mean ([2]; 72 hr, Laminarin + virus): 37.794
- RQ1 ([2]; 72 hr, Laminarin alone): 19.725
- RQ2 ([2]; 72 hr, Laminarin alone): 58.615
- RQ3 ([2]; 72 hr, Laminarin alone): 21.699
- RQ mean ([2]; 72 hr, Laminarin alone): 33.346
